Converted amounts (≈) assume the structure as drawn. Like-named read-outs stand apart in the source and are kept apart here.
Experiments:
[1] = maximum solubility of Resiniferatoxin by the equilibrium method (HPLC); assay type: physicochemical; conditions: buffer medium with TPGS, 25 °C, pH 8, aqueous with cosolvent or surfactant or cyclodextrin, thermodynamic from solid, TPGS 3.5 mg/ml, n ≥ 3, read-out: RTX solubility
Description: The maximum solubility of Resiniferatoxin in various liquids was investigated by the equilibrium method.
Buffer media were saturated with an excess amount of Resiniferatoxin (characterized by undissolved API) and incubated at 25° C. while shaking (150 rpm) for 72 h. After incubation, 1 mL of each sample was centrifuged (10 min, 12045 RCF) and the supernatant was used to determine the amount of solubilized Resiniferatoxin via HPLC.

[2] = cited from earlier work
[3] = randomized, double-blind, placebo-controlled, single-dose trial of intraarticular Resiniferatoxin: analgesic effect (VAS pain on motion, WOMAC); assay type: in vivo, human
Description: (§1) The primary objective of this study was to compare the analgesic effects of single intraarticular injections of Resiniferatoxin (100 or 400 ng) compared to placebo, at 3 and 6 months postinjection, in participants with chronic osteoarthritic knee joint pain. Secondary objectives were to evaluate the analgesic effects of Resiniferatoxin versus placebo in terms of a responder analysis (percentage of subjects achieving ≥50% or ≥70% reduction in visual analog scale pain score) and changes in Western Ontario and McMaster Universities Arthritis Index (WOMAC) total and subscale scores (pain, physical function and stiffness). Safety and injection site pain were also evaluated.
(§2) The study was conducted as a randomized, double-blind, placebo-controlled, single-dose trial of Resiniferatoxin. Eligible patients were aged 40 to 80 years with radiographic knee osteoarthritis (Kellgren-Lawrence Grade 2-4 in the last 3 years) and a baseline visual analog scale (0-100 mm) pain score ≥40 mm on motion in the target knee, with or without pain medication. 67 subjects were randomized to treatment with either Resiniferatoxin 100 ng (n=24) or 400 ng (n=23), or placebo (n=20), administered intraarticularly into the index knee. Intraarticular Ropivacaine (5 ml, 0.5%) was administered 15 mins before investigational medicinal product. Visual analog scale scores were used to evaluate pain on motion as the average of the last 2 days in a target knee between baseline and at 3 and 6 months post injection. Injection site pain was rated (visual analog scale) from baseline (−0.5 h) up to 3 h post intraarticular injections.
Data values plotted as mean±standard error of mean, offset in X for clarity. ▴ Placebo (n=20); ▪ Resiniferatoxin 100 ng (n=24); ● Resiniferatoxin 400 ng (n=23).

[4] = same trial: safety, treatment emergent adverse events and injection site pain; assay type: in vivo, human; conditions: for subjects with severe adverse events: none related to investigational medicinal product
Description: as §1, §2

[5] = single intraarticular 100 ng or 400 ng

Structure (SMILES) | solubility at 72 h ([1]; Ex. 5-1: no ethanol, NaCl 8.58, CaCl2 0.2, KCl 0.1, trometamol 0.4 mg/ml, pH 8.0, mean ± SD) [µg/mL] | solubility at 72 h ([1]; Ex. 5-2: ethanol 39.44 mg/ml, NaCl 8.58, CaCl2 0.58, KCl 0.3, trometamol 1.22 mg/ml, pH 8.0, mean ± SD) [µg/mL] | solubility at 72 h ([1]; Ex. 5-3: ethanol 39.44 mg/ml, mannitol 14.9 mg/ml, salts as Ex. 5-2, pH 8.0, mean ± SD) [µg/mL] | solubility at 72 h ([1]; Ex. 5-4: no ethanol, NaCl 8.58, CaCl2 0.58, KCl 0.3, trometamol 1.22 mg/ml, pH 8.0, mean ± SD) [µg/mL] | efficacy ([2]; 5 μg, 12.5 μg, 20 μg and 30 μg cohorts, preliminary) | safety ([2]; onetime intraarticular injection up to 30 μg) | reduction in WOMAC total and subscale scores (pain, physical function and stiffness) compared to placebo ([3]; 100 ng and 400 ng, at both 3 and 6 months) | pain reduction compared to placebo ([3]; 100 ng or 400 ng intraarticular) | first trial visit at which reduction in VAS pain on motion was observed ([3]; intention-to-treat population) [days] | last trial visit until which the effect lasted ([3]; intention-to-treat population) [month] | analgesic onset after administration [3, 5] | duration for which analgesia was evident during follow-up [3, 5] | subjects with severe adverse events ([4]; Resiniferatoxin 100 ng) [subjects] | subjects with severe adverse events ([4]; Resiniferatoxin 400 ng) [subjects] | injection site pain (procedural pain) compared to placebo ([4]; highly variable across treatment groups) | time of peak injection site pain post-injection ([4]; intraarticular injection, moderate-severe intensity in some subjects) | injection site pain, return to baseline ([4]; post intraarticular injection) [h] | safety profile and tolerability [4, 5]
C=C(C)[C@]12C[C@@H](C)[C@@]34O[C@](Cc5ccccc5)(O[C@@H]1[C@@H]3C=C(COC(=O)Cc1ccc(O)c(OC)c1)C[C@]1(O)C(=O)C(C)=C[C@@H]41)O2 [RTX] | 333 ± 100 (≈ 530 µM) | 630 ± 38 (≈ 1000 µM) | 336 ± 53 | 317 ± 75 (≈ 504 µM) |  |  |  |  |  |  |  |  |  |  |  |  |  | 
C=C(C)[C@]12C[C@@H](C)[C@@]34O[C@](Cc5ccccc5)(O[C@@H]1[C@@H]3C=C(COC(=O)Cc1ccc(O)c(OC)c1)C[C@]1(O)C(=O)C(C)=C[C@@H]41)O2 [Resiniferatoxin, 4-hydroxy-3-methoxy-benzeneacetic acid, [(2S,3aR,3bS,6aR,9aR,9bR, 10R,11aR)-3a,3b,6,6a,9a,10,11,11a-octahydro-6a-hydroxy-8,10-dimethyl-11a-(1-methylethenyl)-7-oxo-2-(phenylmethyl)-7H-2,9b-epoxyazuleno[5,4-e]-1,3-benzodioxol-5-yl]methyl ester] |  |  |  |  | Preliminary efficacy was also observed | demonstrated safety | greater reduction | greater pain reduction | 8 | 6 | within one week | at least 3 months | 2 | 3 | generally higher | around 0.5 h | ≤ 3 | good safety profile

— US20250228815A1, “LYOPHILIZED RESINIFERATOXIN” (Gruenenthal GmbH, priority 2024, published 2025)
